The values that follow come from US4315933A, “Antibacterial amide compounds and pharmaceutical compositions containing the same” (Warner-Lambert Company, priority 1980, dated 1982).

Holding throughout (assay): Minimal Inhibitory Concentration, in vitro
Holding throughout (type): cell-based

The subject of experiment [1] is Pseudomonas aeruginosa #28.
Experiment [2] concerns Entero. cloacae. The following applies: for MIC: Enterobacter cloacae.
Experiment [3] concerns Serr. marces.
The subject of experiment [4] is Kleb. pneu.
Experiment [5] has as its system Staph. aureus S18713. The note with it: for MIC: Staphylococcus aureus.

In brackets after ≈: the same amount, converted by molar mass.

What is called MIC is the lowest concentration found to suppress growth. With `CC1(C)S[C@@H]2[C@H](NC(=O)[C@H](NC(=O)c3cnc(-c4ccc(NC(=O)CC#N)cc4)nc3O)c3ccc(O)cc3)C(=O)N2[C@H]1C(=O)O` [Example 4, N-[2-[4-(Cyanoacetylamino)phenyl]-4-hydroxy-5-pyrimidinylcarbonyl]amoxicillin], the minimal inhibitory concentration (MIC) in experiment [1] is 0.8 µg/mL (≈ 1.24 µM); in experiment [2], 3.1 µg/mL (≈ 4.8 µM); in experiment [3] it was 3.1 µg/mL (≈ 4.8 µM); in experiment [4], 25 µg/mL (≈ 38.7 µM); in experiment [5], greater than 50 µg/mL.

Take `COCC(=O)Nc1ccc(-c2ncc(C(=O)N[C@@H](C(=O)N[C@@H]3C(=O)N4[C@@H]3SC(C)(C)[C@@H]4C(=O)O)c3ccccc3)c(O)n2)cc1` [Example 5, N-[2-[4-(Methoxyacetylamino)phenyl]-4-hydroxy-5-pyrimidinylcarbonyl]ampicillin]: the minimal inhibitory concentration (MIC) was found to be 3.1 µg/mL (≈ 4.88 µM) in experiment [1]; 12.5 µg/mL (≈ 19.7 µM) in experiment [2]; 100 µg/mL (≈ 158 µM) in experiment [3]; 25 µg/mL (≈ 39.4 µM) in experiment [4]; 100 µg/mL (≈ 158 µM) in experiment [5].

With `CCNC(=O)Nc1ccc(-c2ncc(C(=O)N[C@@H](C(=O)N[C@@H]3C(=O)N4[C@@H]3SC(C)(C)[C@@H]4C(=O)O)c3ccc(O)cc3)c(O)n2)cc1` [Example 8, N-[2-[4-(N-Ethylcarbamoylamino)phenyl]-4-hydroxy-5-pyrimidinylcarbonyl]amoxicillin], the minimum inhibitory concentration (MIC) in experiment [1] is 0.8 µg/mL (≈ 1.23 µM); in experiment [2], 6.3 µg/mL (≈ 9.7 µM); in experiment [3], 3.1 µg/mL (≈ 4.77 µM); in experiment [4], 12.5 µg/mL (≈ 19.2 µM); in experiment [5], greater than 50 µg/mL.

For “N-[2-[4-(Acetylamino)phenyl]-4-hydroxy-5-pyrimidinylcarbonyl]amoxicillin [Example 2]”, the entries for the “Minimal Inhibitory Concentration” value in experiment [1], in experiment [3] and in experiment [4] were 1.6 µg/mL, 200 µg/mL and 6.3 µg/mL, respectively.

Turning to “N-[2-[4-(Dichloroacetylamino)phenyl]-4-hydroxy-5-pyrimidinylcarbonyl]amoxicillin [Example 1]”, the “Minimal Inhibitory Concentration” value was 1.6 µg/mL in experiment [1]; 1.6 µg/mL in experiment [2]; 200 µg/mL in experiment [3]; 12.5 µg/mL in experiment [4]; 50 µg/mL in experiment [5].

With “N-[2-[4-(Trifluoroacetylamino)phenyl]-4-hydroxy-5-pyrimidinylcarbonyl]amoxicillin [Example 3]”, the “Minimal Inhibitory Concentration” value is 0.8 µg/mL in experiment [1]; 6.3 µg/mL in experiment [2]; 3.1 µg/mL in experiment [3]; 12.5 µg/mL in experiment [4]; greater than 50 µg/mL in experiment [5].

As to “N-[2-[4-[(2,2,2-Trifluoroethyl)thio]acetylamino]phenyl]-4-hydroxy-5-pyrimidinylcarbonyl]amoxicillin [Example 7]”, the results for the “Minimal Inhibitory Concentration” value in experiment [3], in experiment [4] and in experiment [5] were 200 µg/mL, 50 µg/mL and 50 µg/mL, respectively.

In the case of “N-[2-[4-[(2-Ethoxy-1,2-dioxoethyl)amino]phenyl]-4-hydroxy-5-pyrimidinylcarbonyl]amoxicillin [Example 6]”, the “Minimal Inhibitory Concentration” value in experiment [1] was 1.6 µg/mL; in experiment [2], 12,5 μg/ml; in experiment [4], 25 µg/mL.
